From PMC8623395, “Virtual Screening and Molecular Dynamics Simulation Study of Influenza Polymerase PB2 Inhibitors” (Molecules, 2021)

Tests used:
[1] = test system: A/WSN/33; parameters: method as in PMID 20178582; conditions: cited from earlier work
[2] = test system: influenza virus polymerase PB2 subunit; parameters: method as in PMID 30102858; conditions: cited from earlier work
[3] = test system: influenza A/Puerto Rico/8/1934 (H1N1); experiment: CPE inhibition assay in MDCK cells, H1N1; assay type: cell-based; conditions: Influenza A virus, 72 h
[4] = test system: HK/68 (H3N2); experiment: CPE inhibition assay in MDCK cells, H3N2; assay type: cell-based; conditions: Influenza A virus, 72 h
[5] = in vitro; conditions: dog
[6] = test system: influenza virus ribonucleoprotein (RNP); parameters: method as in PMID 12755627; conditions: cited from earlier work
[7] = test system: H3N2 influenza virus; parameters: method as in PMID 24134208; conditions: read-out: IC50 for the cytopathic effect (CPE) of H3N2 influenza virus; cited from earlier work

Structure (SMILES)	IC50 [3] [µM]	IC50 [4] [µM]	CC50 at 72 h [5] [µM]	other results
O=C(O)c1cc(-c2ccc(Br)cc2)nc2ccc(Cl)cc12 [CSV0C019002]				EC50 [1]: 4.27 µM
O=c1oc2cc(O)cc(O)c2c2ccccc12 [Compound D715-2441, 1,3-Dihydroxy-6H-benzo[c]chromen-6-one]				PB2 cap and m7 GTP binding [2]: prevent PB2 cap and m7 GTP binding in a dose-dependent manner
CCC(CC)O[C@@H]1C=C(C(=O)O)C[C@H](N)[C@H]1NC(C)=O [OC, Oseltamivir carboxylate, reference compound]	0.95	0.01	> 100	
Nc1nc2c(c(=O)[nH]1)[n+](Cc1ccccc1)cn2CCCCO [RO0794238]				IC50 [6]: 45 µM
O=C(Nc1nc(-c2ccc(O)cc2)c(CCc2ccccc2)s1)c1cc(O)c(O)c(O)c1 [Str1614]	26.3 ± 8.69	19.6 ± 0.93	> 100	
CCCCOc1ccc(-c2csc(Nc3ccc(CCC(=O)O)cc3)n2)cc1Cl [Str1916]	4.82 ± 3.03	17 ± 7.94	> 100	
O=C(O)c1cc2ccccc2c(Cc2c(O)c(C(=O)O)cc3ccccc23)c1O [Str3107]	18.2 ± 4.96	45.7 ± 3.01		CC50 [5]: > 100 µM
O=C(O)c1cccc([C@@H](c2ccc(O)c(C(=O)O)c2)C(Cl)(Cl)Cl)c1 [Str5776]	3.55 ± 1.23	2.51 ± 0.12	> 100	
O=C(CCCCC(=O)c1ccccc1C(=O)O)c1ccccc1 [Str6318]	28.6 ± 9.46	11.2 ± 3.39	> 100	
COc1c2oc3c(OC)ccc(C(=O)N[C@@H](Cc4ccccc4)C(=O)O)c3nc-2cc(N)c1=O [Str7374]	31.9 ± 8.15	55.4 ± 27	> 100	
O=C(O)[C@H]1C2CCC(CC2)[C@@H]1Nc1nc(-c2c[nH]c3ncc(F)cc23)ncc1F [VX-787, reference compound]	0.004 ± 0.001	0.09 ± 0.02		CC50 [5]: > 100 µM
C[n+]1cn(CCCCC(=O)O)c2nc(CCCCCC(=O)O)nc([O-])c21 [g]				IC50 [7]: 5.3 µM
Cc1nc([O-])c2c(n1)n(CC(=O)c1ccc(O)c(C(=O)O)c1)c[n+]2C [h]				IC50 [7]: 0.6 µM
Cc1nc([O-])c2c(n1)n(CC(=O)c1ccc(O)c(C(N)=O)c1)c[n+]2C [i]				IC50 [7]: 7.5 µM
